Results from the supplement of paper PMC10307832.

Assays:
Assay in all cases: relative viability (nuclei count vs DMSO), 5 days (fraction); higher = more cells survive
[1] = compound: O=S(=O)(c1ccccc1)N(CC(F)(F)F)c1ccc(C(O)(C(F)(F)F)C(F)(F)F)cc1 + COc1cc2c(Oc3ccc(NC(=O)C4(C(=O)Nc5ccc(F)cc5)CC4)cc3F)ccnc2cc1OCCCN1CCOCC1 [Foretinib] (partner 0.25 µM)
Method in brief: (§1)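 Dosing by pin tool came one day after lung cancer cell lines were seeded in 1536-well plates, using either one drug or a fixed anchor-drug dose plus five library-drug doses (not always all listed) in √10 steps. After 5 days, nuclei were counted on 4× images. Relative viability is treated-well nuclei count divided by vehicle-well nuclei count, and values are medians of duplicate plates.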

RO-3306 + Linsitinib = compound: C1=CC2=C(C=CC(=C2)C=C3C(=O)NC(=NCC4=CC=CS4)S3)N=C1 [RO-3306] + C[C@]1(O)C[C@@H](c2nc(-c3ccc4ccc(-c5ccccc5)nc4c3)c3c(N)nccn32)C1 [Linsitinib] (partner 1 µM)
Method in brief: as §1

[2] = compound: O=S(=O)(c1ccccc1)N(CC(F)(F)F)c1ccc(C(O)(C(F)(F)F)C(F)(F)F)cc1 + N=C(N)NC(=N)NCCc1ccccc1 [Phenformin] (partner 250 µM)
Method in brief: as §1

[3] = compound: O=S(=O)(c1ccccc1)N(CC(F)(F)F)c1ccc(C(O)(C(F)(F)F)C(F)(F)F)cc1 + COc1cccc2cc(-c3nc([C@H]4CC[C@H](C(=O)O)CC4)n4ncnc(N)c34)[nH]c12 [OSI-027] (partner 0.5 µM)
Method in brief: as §1

RO-3306 + Pictilisib = compound: C1=CC2=C(C=CC(=C2)C=C3C(=O)NC(=NCC4=CC=CS4)S3)N=C1 [RO-3306] + CS(=O)(=O)N1CCN(Cc2cc3nc(-c4cccc5[nH]ncc45)nc(N4CCOCC4)c3s2)CC1 [Pictilisib] (partner 1 µM)
Method in brief: as §1

Cell Line | relative viability ([1]; first compound 0.8 µM) | relative viability ([1]; first compound 2.53 µM) | relative viability ([1]; first compound 8 µM) | relative viability (RO-3306 + Linsitinib; first compound 0.01 µM) | relative viability (RO-3306 + Linsitinib; first compound 0.03162 µM) | relative viability (RO-3306 + Linsitinib; first compound 0.1 µM) | relative viability (RO-3306 + Linsitinib; first compound 0.3162 µM) | relative viability (RO-3306 + Linsitinib; first compound 1 µM) | relative viability ([2]; first compound 0.8 µM) | relative viability ([2]; first compound 2.53 µM) | relative viability ([2]; first compound 8 µM) | relative viability ([3]; first compound 0.8 µM) | relative viability ([3]; first compound 2.53 µM) | relative viability ([3]; first compound 8 µM) | relative viability (RO-3306 + Pictilisib; first compound 0.01 µM) | relative viability (RO-3306 + Pictilisib; first compound 0.03162 µM) | relative viability (RO-3306 + Pictilisib; first compound 0.1 µM) | relative viability (RO-3306 + Pictilisib; first compound 0.3162 µM) | relative viability (RO-3306 + Pictilisib; first compound 1 µM)
SK-LU-1 | 0.716 | 0.857 | 0.695 | 1.25 | 1.08 | 1.02 | 1.19 | 0.957 | 0.546 | 0.489 | 0.526 | 0.355 | 0.286 | 0.358 | 0.539 | 0.603 | 0.651 | 0.671 | 0.521
NCI-H441 | 0.916 | 0.927 | 0.952 | 0.53 | 0.385 | 0.479 | 0.554 | 0.405 | 1.16 | 0.905 | 0.813 | 0.669 | 0.517 | 0.62 | 0.491 | 0.332 | 0.387 | 0.607 | 0.451
EPLC-272H | 0.544 | 0.599 | 0.702 | 1.2 | 0.768 | 1.24 | 1.04 | 0.96 | 0.273 | 0.304 | 0.269 | 0.301 | 0.304 | 0.25 | 0.3 | 0.211 | 0.275 | 0.255 | 0.287
HCC-366 | 0.96 | 0.937 | 1.04 | 0.531 | 0.405 | 0.594 | 0.886 | 0.569 | 0.693 | 0.568 | 0.48 | 1.16 | 0.872 | 0.729 | 0.118 | 0.0988 | 0.149 | 0.214 | 0.106
PC-14 | 1.11 | 1.09 | 0.988 | 0.989 | 0.773 | 0.969 | 1.02 | 0.991 | 0.309 | 0.357 | 0.447 | 0.991 | 0.886 | 0.44 | 0.892 | 0.539 | 0.648 | 0.592 | 0.511
LU99A | 0.785 | 0.773 | 0.725 | 0.561 | 0.489 | 0.515 | 0.525 | 0.495 | 0.878 | 0.762 | 0.875 | 0.302 | 0.296 | 0.302 | 0.33 | 0.292 | 0.343 | 0.284 | 0.295
NCI-H2087 | 1.15 | 0.909 | 0.971 | 0.977 | 0.982 | 1.06 | 1.05 | 0.928 | 0.512 | 0.456 | 0.341 | 0.6 | 0.487 | 0.622 | 0.988 | 0.698 | 1.01 | 0.974 | 0.836
BEN | 0.568 | 0.527 | 0.578 | 1.03 | 0.672 | 0.835 | 0.972 | 0.916 | 0.262 | 0.249 | 0.283 | 0.344 | 0.266 | 0.308 | 0.559 | 0.487 | 0.532 | 0.697 | 0.623
NCI-H2405 | 1.14 | 1.05 | 0.979 | 0.994 | 0.873 | 0.896 | 0.921 | 0.944 | 0.386 | 0.402 | 0.396 | 0.674 | 0.645 | 0.681 | 0.369 | 0.433 | 0.496 | 0.534 | 0.427
